One test concerns the target Cbl-b (Homo sapiens (Human), UniProt Q13191). The test can be described thus: Cbl-b LCK Ub TR-FRET assay (Cbl-b Lck HTRF). It is filed as biochemical. A digest of the protocol: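 TR-FRET (340 nm excitation, 615/665 nm emission) read after adding HA-ubiquitin–UBE2D2 thioester, anti-HA-D2 and streptavidin-Eu. Beforehand, compounds incubated 60 min with biotinylated Cbl-b, then 90 min with His-LCK and ATP (1 mM in 2× mix); IC50 from 10 concentrations, DMSO high and no-LCK low controls.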

For a further test, the target named is c-Cbl (Homo sapiens (Human), UniProt P22681). The test can be described thus: C-Cbl LCK Ub TR-FRET assay (c-cbl Lck HTRF). The conditions noted are these: for (fold-selectivity): C-cbl Lck HTRF IC50 relative to Cbl-b Lck HTRF IC50. Format: biochemical. A digest of the protocol: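 After the ubiquitination reaction, detection mixture was added and plates incubated 20 min at room temperature before reading. IC50 values were calculated with wells lacking LCK as the low control and DMSO as the high control.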

Molecules are shown by their SMILES. Where a name gives a salt, the structure may show the parent alone. Some results are limits rather than exact numbers.

Sequence of Cbl-b (Q13191 40-426): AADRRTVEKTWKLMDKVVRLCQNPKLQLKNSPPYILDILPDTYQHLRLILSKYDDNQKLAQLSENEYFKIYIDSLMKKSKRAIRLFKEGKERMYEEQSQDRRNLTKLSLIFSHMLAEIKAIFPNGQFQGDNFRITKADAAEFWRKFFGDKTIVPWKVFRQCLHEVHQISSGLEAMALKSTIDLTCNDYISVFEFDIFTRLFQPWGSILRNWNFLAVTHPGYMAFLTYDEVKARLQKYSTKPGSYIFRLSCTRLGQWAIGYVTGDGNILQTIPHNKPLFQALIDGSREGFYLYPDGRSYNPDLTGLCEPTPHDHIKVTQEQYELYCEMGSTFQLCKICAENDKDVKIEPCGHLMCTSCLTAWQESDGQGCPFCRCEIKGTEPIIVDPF
Sequence of c-Cbl (P22681 47-435): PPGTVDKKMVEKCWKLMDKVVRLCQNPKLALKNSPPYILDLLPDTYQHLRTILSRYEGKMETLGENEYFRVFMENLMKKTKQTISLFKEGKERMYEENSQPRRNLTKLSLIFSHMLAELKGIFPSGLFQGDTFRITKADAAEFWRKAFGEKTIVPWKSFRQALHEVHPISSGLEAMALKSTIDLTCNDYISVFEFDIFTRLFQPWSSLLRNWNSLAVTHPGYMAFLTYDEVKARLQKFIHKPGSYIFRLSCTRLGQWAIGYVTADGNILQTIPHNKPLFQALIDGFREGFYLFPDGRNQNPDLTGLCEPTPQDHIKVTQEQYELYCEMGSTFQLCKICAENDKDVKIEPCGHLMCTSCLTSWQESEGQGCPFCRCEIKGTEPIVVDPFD

On Cbl-b, `COc1cccc2c1CN(c1cccc(C3([C@@H](F)c4nncn4C)COC3)c1)C2=O` [Compound 206, (R)-2-(3-(3-(fluoro(4-methyl-4H-1,2,4-triazol-3-yl)methyl)oxetan-3-yl)phenyl)-4-methoxyisoindolin-1-one] displayed a 50% inhibitory concentration (IC50) of 1.5 µM. On c-Cbl, the half-inhibitory concentration (IC50) turned out to be 2.3 µM and the “(fold-selectivity)” value came to 1.5x.
With `CC(C)Oc1cccc2c1CN(c1cccc(C3([C@@H](F)c4nncn4C)COC3)c1)C2=O` [Compound 207, (R)-2-(3-(3-(fluoro(4-methyl-4H-1,2,4-triazol-3-yl)methyl)oxetan-3-yl)phenyl)-4-isopropoxyisoindolin-1-one], the half-maximal inhibitory concentration (IC50) is 4.5 µM on Cbl-b and 13 µM against c-Cbl. The “(fold-selectivity)” value on c-Cbl is 2.8x.
As to `Cc1cccc2c1CN(c1cccc(C3([C@@H](F)c4nncn4C)COC3)c1)C2=O` [Compound 208, (R)-2-(3-(3-(fluoro(4-methyl-4H-1,2,4-triazol-3-yl)methyl)oxetan-3-yl)phenyl)-4-methylisoindolin-1-one], at Cbl-b, the IC50 came to 1.4 µM. Besides, at c-Cbl, the concentration for half-maximal inhibition (IC50) is 2.1 µM and the “(fold-selectivity)” value is recorded as 1.5x.
Consider `CCc1cccc2c1CN(c1cccc(C3([C@@H](F)c4nncn4C)COC3)c1)C2=O` [Compound 209], for which, on Cbl-b, 1.1 µM corresponded to half-maximal inhibition (IC50). On c-Cbl, the half-maximal inhibitory concentration (IC50) turned out to be 1.9 µM and the “(fold-selectivity)” value worked out at 1.7x.
On the same counts, the results for `Cn1cnnc1[C@H](F)C1(c2cccc(N3Cc4c(cccc4-c4ccccc4)C3=O)c2)COC1` [Compound 210, (R)-2-(3-(3-(fluoro(4-methyl-4H-1,2,4-triazol-3-yl)methyl)oxetan-3-yl)phenyl)-4-phenylisoindolin-1-one] are more than 20 µM, more than 20 µM and 1.0x.
`C#Cc1cccc2c1CN(c1cccc(C3([C@@H](F)c4nncn4C)COC3)c1)C2=O` [Compound 211, (R)-4-ethynyl-2-(3-(3-(fluoro(4-methyl-4H-1,2,4-triazol-3-yl)methyl)oxetan-3-yl)phenyl)isoindolin-1-one]: on Cbl-b, the IC50 turned out to be 0.94 µM. For the same compound, on c-Cbl, half-maximal inhibition (IC50) was put at 1.6 µM and the “(fold-selectivity)” value was found to be 1.7x.
On to `CNCc1cc2c(c(C(F)(F)F)c1)CN(c1cccc(C3([C@@H](F)c4nncn4C)COC3)c1)C2=O` [Compound 212, (R)-2-(3-(3-(fluoro(4-methyl-4H-1,2,4-triazol-3-yl)methyl)oxetan-3-yl)phenyl)-6-((methylamino)methyl)-4-(trifluoromethyl)isoindolin-1-one], for which the values for the concentration for half-maximal inhibition (IC50) against Cbl-b and at c-Cbl were 0.075 µM and 0.13 µM, respectively. For the same compound, at c-Cbl, the “(fold-selectivity)” value stood at 1.7 x.
For `CCNCc1cc2c(c(C(F)(F)F)c1)CN(c1cccc(C3([C@@H](F)c4nncn4C)COC3)c1)C2=O` [Compound 213, (R)-6-((ethylamino)methyl)-2-(3-(3-(fluoro(4-methyl-4H-1,2,4-triazol-3-yl)methyl)oxetan-3-yl)phenyl)-4-(trifluoromethyl)isoindolin-1-one], in that order: 0.038 µM, 0.061 µM and 1.6x.
For `C[C@H]1CN(C)CCN1Cc1cc2c(c(C(F)(F)F)c1)CN(c1cccc(C3(Cc4nncn4C)CC(F)(F)C3)c1)C2=O` [Compound 214, (S)-2-(3-(3,3-difluoro-1-((4-methyl-4H-1,2,4-triazol-3-yl)methyl)cyclobutyl)phenyl)-6-((2,4-dimethylpiperazin-1-yl)methyl)-4-(trifluoromethyl)isoindolin-1-one], in that order: 0.042 µM, 0.041 µM and 0.96x.
`CC(C)[C@H]1CN(C)CCN1Cc1cc2c(c(C(F)(F)F)c1)CN(c1cccc(C3(Cc4nncn4C)CC(F)(F)C3)c1)C2=O` [Compound 215, (S)-2-(3-(3,3-difluoro-1-((4-methyl-4H-1,2,4-triazol-3-yl)methyl)cyclobutyl)phenyl)-6-((2-isopropyl-4-methylpiperazin-1-yl)methyl)-4-(trifluoromethyl)isoindolin-1-one] yielded a half-inhibitory concentration (IC50) against Cbl-b of 0.0075 µM. Also, on c-Cbl, inhibition was half-maximal at 0.005 µM (IC50) and the “(fold-selectivity)” value was found to be 0.66x.
For `CC(C)[C@H]1CNCCN1Cc1cc2c(c(C(F)(F)F)c1)CN(c1cccc(C3([C@@H](F)c4nncn4C)CCC3)c1)C2=O` [Compound 216, 2-(3-(1-((R)-fluoro(4-methyl-4H-1,2,4-triazol-3-yl)methyl)cyclobutyl)phenyl)-6-(((S)-2-isopropylpiperazin-1-yl)methyl)-4-(trifluoromethyl)isoindolin-1-one], in that order: 0.008 µM, 0.0048 µM and 0.60x.
`CC(C)[C@H]1CNCCN1Cc1cc2c(c(C(F)(F)F)c1)CN(c1cccc(C3([C@H](F)c4nncn4C)CCC3)c1)C2=O` [Compound 217, 2-(3-(1-((S)-fluoro(4-methyl-4H-1,2,4-triazol-3-yl)methyl)cyclobutyl)phenyl)-6-(((S)-2-isopropylpiperazin-1-yl)methyl)-4-(trifluoromethyl)isoindolin-1-one] had a 50% inhibitory concentration (IC50) against Cbl-b of 0.017 µM. Also, on c-Cbl, 0.02 µM corresponded to half-maximal inhibition (IC50) and the “(fold-selectivity)” value is 1.2x.
For `CC(C)[C@@H]1CN(Cc2cc3c(c(C(F)(F)F)c2)CN(c2cccc(C4([C@@H](F)c5nncn5C)COC4)c2)C3=O)CCN1C` [Compound 218, 2-(3-(3-((R)-fluoro(4-methyl-4H-1,2,4-triazol-3-yl)methyl)oxetan-3-yl)phenyl)-6-(((R)-3-isopropyl-4-methylpiperazin-1-yl)methyl)-4-(trifluoromethyl)isoindolin-1-one], in that order: 0.022 µM, 0.029 µM and 1.3x.
As for `CC(C)[C@H]1CNCCN1Cc1cc2c(c(C(F)(F)F)c1)CN(c1cccc(C3(Cc4nncn4C)CC(F)(F)C3)c1)C2=O` [Compound 219, (S)-2-(3-(3,3-difluoro-1-((4-methyl-4H-1,2,4-triazol-3-yl)methyl)cyclobutyl)phenyl)-6-((2-isopropylpiperazin-1-yl)methyl)-4-(trifluoromethyl)isoindolin-1-one], it took 0.075 µM to reach half-maximal inhibition against Cbl-b (IC50). In addition, on c-Cbl, half-maximal inhibition (IC50) required 0.084 µM and the “(fold-selectivity)” value stood at 1.1x.
Compound `C[C@@H]1CN(Cc2cc3c(c(C(F)(F)F)c2)CN(c2cccc(C4(Cc5nncn5C)CC(F)(F)C4)c2)C3=O)CCN1C` [Compound 220, (R)-2-(3-(3,3-difluoro-1-((4-methyl-4H-1,2,4-triazol-3-yl)methyl)cyclobutyl)phenyl)-6-((3,4-dimethylpiperazin-1-yl)methyl)-4-(trifluoromethyl)isoindolin-1-one] returned an IC50 on Cbl-b of 0.034 µM. Moreover, at c-Cbl, the IC50 came out at 0.035 µM and the “(fold-selectivity)” value amounted to 1.0x.
Turning to `CC(C)[C@H]1CN(C)CCN1Cc1cc2c(c(C(F)(F)F)c1)CN(c1cccc(C3(C(F)(F)c4nncn4C)CC3)c1)C2=O` [Compound 221, (S)-2-(3-(1-(Difluoro(4-methyl-4H-1,2,4-triazol-3-yl)methyl)cyclopropyl)phenyl)-6-((2-isopropyl-4-methylpiperazin-1-yl)methyl)-4-(trifluoromethyl)isoindolin-1-one], the IC50 against Cbl-b and at c-Cbl was 0.015 µM throughout. Also, the “(fold-selectivity)” value at c-Cbl amounted to 1.0x.
The compound `Cc1cnnn1CC1(c2cccc(N3Cc4c(cc(CN5CCN(C)C[C@@H]5C(C)C)cc4C(F)(F)F)C3=O)c2)COC1` [Compound 222, (S)-6-((2-Isopropyl-4-methylpiperazin-1-yl)methyl)-2-(3-(3-((5-methyl-1H-1,2,3-triazol-1-yl)methyl)oxetan-3-yl)phenyl)-4-(trifluoromethyl)isoindolin-1-one] returned an IC50 at Cbl-b of 0.022 µM. In addition, on c-Cbl, half-maximal inhibition (IC50) was put at 0.026 µM and the “(fold-selectivity)” value came out at 1.2x.
Regarding `CC(C)NCc1cc2c(c(C(F)(F)F)c1)CN(c1cccc(C3([C@@H](F)c4nncn4C)COC3)c1)C2=O` [Compound 226, (R)-2-(3-(3-(fluoro(4-methyl-4H-1,2,4-triazol-3-yl)methyl)oxetan-3-yl)phenyl)-6-((isopropylamino)methyl)-4-(trifluoromethyl)isoindolin-1-one formate], the results for the IC50 against Cbl-b and at c-Cbl were 0.029 µM and 0.033 µM, respectively.
On to `Cn1cnnc1[C@H](F)C1(c2cccc(N3Cc4c(cc(CNC5CCC5)cc4C(F)(F)F)C3=O)c2)COC1` [Compound 227, (R)-6-((Cyclobutylamino)methyl)-2-(3-(3-(fluoro(4-methyl-4H-1,2,4-triazol-3-yl)methyl)oxetan-3-yl)phenyl)-4-(trifluoromethyl)isoindolin-1-one formate], for which the IC50 was determined as 0.016 µM on Cbl-b and 0.013 µM at c-Cbl.
For `CCCNCc1cc2c(c(C(F)(F)F)c1)CN(c1cccc(C3([C@@H](F)c4nncn4C)COC3)c1)C2=O` [Compound 228, (R)-2-(3-(3-(fluoro(4-methyl-4H-1,2,4-triazol-3-yl)methyl)oxetan-3-yl)phenyl)-6-((propylamino)methyl)-4-(trifluoromethyl)isoindolin-1-one formate], in that order: 0.012 µM and 0.096 µM.
In the case of `Cn1cnnc1[C@H](F)C1(c2cccc(N3Cc4c(cc(CNC5(C)CC5)cc4C(F)(F)F)C3=O)c2)COC1` [Compound 229, (R)-2-(3-(3-(fluoro(4-methyl-4H-1,2,4-triazol-3-yl)methyl)oxetan-3-yl)phenyl)-6-(((1-methylcyclopropyl)amino)methyl)-4-(trifluoromethyl)isoindolin-1-one], the IC50 at Cbl-b came to 0.012 µM. On c-Cbl, the IC50 was found to be 0.01 µM and the “(fold-selectivity)” value is “(0.83x)”.

For the origin of these results see US20250230147A1, “LACTAMS AS CBL-B INHIBITORS” (Genentech, Inc., priority 2021, published 2025).
